# Laboratory results: ChEMBL document CHEMBL1156359, “New cytotoxic sesterterpenes from the sponge Sarcotragus species” (2001)
# Experiments:
# Type in all cases: functional
# Conditions in all cases: read-out: ED50 (the source's name)
# SK-OV-3 = assay: Cytotoxicity against human SKOV3 cells
# A549 = assay: Cytotoxicity against human A549 cells
# XF498 = assay: Cytotoxicity against human XF498 cells
# SK-MEL-2 = assay: Cytotoxicity against human SK-MEL-2 cells
# HCT-15 = assay: Cytotoxicity against human HCT15 cells
SMILES,EC50 (SK-OV-3),EC50 (A549),EC50 (XF498),EC50 (SK-MEL-2),EC50 (HCT-15)
CC1=C(O)[C@@H](C/C(C)=C\CC/C(C)=C/CC/C(C)=C/CCc2ccoc2)OC1=O,26.8 µg/mL,16.9 µg/mL,20.4 µg/mL,16.3 µg/mL,27.5 µg/mL
COc1cccc2c1C(=O)c1c(O)c3c(c(O)c1C2=O)C[C@@](O)(C(=O)CO)C[C@@H]3O[C@H]1C[C@H](N)[C@H](O)[C@H](C)O1 [DOXORUBICIN],0.11 µg/mL,0.02 µg/mL,0.08 µg/mL,0.02 µg/mL,0.04 µg/mL
CC1=C(O)/C(=C/[C@H](C)CCC/C(C)=C/CCc2coc(Cc3ccoc3)c2)OC1=O [IRCININ 1],6.55 µg/mL,3.72 µg/mL,5.42 µg/mL,8.95 µg/mL,6.91 µg/mL
CC1=C(O)/C(=C/[C@H](C)CC/C=C(/C)CCCc2coc(Cc3ccoc3)c2)OC1=O [IRCININ 2],5.9 µg/mL,3.8 µg/mL,3.7 µg/mL,5.87 µg/mL,4.74 µg/mL
CC1=C(O)[C@@H](C/C(C)=C\CCC(C)/C=C/C=C(\C)CCCc2ccoc2)OC1=O (stereo not given in full) [SARCOTIN A],22.1 µg/mL,29.7 µg/mL,24.8 µg/mL,> 30 µg/mL,27.2 µg/mL
CC1=C(O)[C@H](C/C(C)=C\CCC(C)/C=C\C=C(\C)CCCc2ccoc2)OC1=O (stereo not given in full) [SARCOTIN B],11.3 µg/mL,10.1 µg/mL,8.89 µg/mL,7.78 µg/mL,8.95 µg/mL
CC1=C(O)/C(=C\[C@H](C)CCC/C(C)=C/CCc2coc(Cc3ccoc3)c2)OC1=O [SARCOTIN D],9.39 µg/mL,4.98 µg/mL,6.52 µg/mL,10.2 µg/mL,9.82 µg/mL
CC1=C(O)/C(=C\[C@H](C)CC/C=C(/C)CCCc2coc(Cc3ccoc3)c2)OC1=O [SARCOTIN E],6.24 µg/mL,3.8 µg/mL,5 µg/mL,8.37 µg/mL,7.31 µg/mL
